Results from patent publication US8535662B2, “Apyrase therapy for bleeding conditions” (Apt Therapeutics, Inc., priority 2010, dated 2013).
“And” between values parts separate entries of the source, which are not always exact repeats. Equal values may be shown once. Marks after values point to notes of the source that are not given here.

Tests used:
[1] = test system: rats, thromboembolic stroke (MCA occlusion); assay: Rat model of thromboembolic stroke (MCA occlusion by preformed clot), apyrase agent plus aspirin (Example 2); format: in vivo; settings: for Neurological deficits, median (interquartile range 25th to 75th), modified Bederson score: n = 10
Description: In this study, four experimental groups were included (n=10):
(1) control, saline injected gastrically;
(2) aspirin, 1.25 mg/kg (equivalent to 100 mg/day dose in human) injected gastrically once a day, starting 3 days prior to middle cerebral artery (MCA) occlusion and also MCA occlusion until the end of each experiment;
(3) apyrase, dose at 0.75 mg/kg injected IV at 2 h after MCA occlusion;
(4) combination group, aspirin and apyrase agent.
In this clinically relevant embolic model, ischemic brain injury was induced by embolizing preformed clots into the middle cerebral artery (MCA). Ten microliters of blood were withdrawn into a catheter and retained for 15 min to allow formation of a clot. Once the clot was formed, the catheter was advanced 17 mm in the ICA until its tip was 1-2 mm away from the origin of the MCA. The preformed clot in the catheter was then injected, and the catheter was removed. […]
Infarct was measured in the brain section stained with 2,3,5-triphenyltetrazolium chloride (TTC) solution. The infarct volume was expressed as a percentage of the total volume from the ipsilateral hemisphere.
Brain swelling (edema) was determined using a formula: edema=(the volume of the right hemisphere—the volume of the left hemisphere)/the volume of the left hemisphere.
Neurological deficits were determined using a modified Bederson's scoring system as following: 0: no observable deficit; 1: forelimb flexion; 2: forelimb flexion plus decreased resistance to lateral push; 3: unidirectional circling; 4: unidirectional circling plus decreased level of consciousness.
Hemorrhagic transformation was quantified by detection of extracellular hemoglobin content in brain homogenates using Drabkin's reagents.

[2] = test system: dogs, coronary thrombotic occlusion; assay: Canine coronary thrombosis and fibrinolysis model, adjunctive treatment with rtPA (Example 7); format: in vivo, dog; settings: dogs
Description: Thrombotic occlusion was induced by electrical injury to a coronary artery in dogs. […] Buccal mucosa bleeding times, PT, and aPTT were measured as indices of bleeding risk. After 24 hours of reperfusion, infarct size was determined by Evan's blue and triphenyltetrazolium chloride double staining. This protocol is illustrated in FIG. 7.

[3] = test system: pigs, coronary injury with stenting; assay: Coronary injury and stent in pigs: hematology, blood chemistry, coagulation, bleeding and inflammation markers (Example 6); settings: for ALT / AST / AlkPh / BUN / Creat / Glu / HGB / K / Na / PCV / Platelets / RBC / Tot. Prot / WBC: single animals and mean ± std. dev.
[4] = test system: pigs, coronary injury with stenting; assay: Coronary injury (balloon overstretch) and bare metal stent in pigs: platelet accumulation and luminal stenosis (Example 6); format: in vivo, pig
Description: Coronary injury with or without stenting in pigs is regarded as the best preclinical model for simulation of human angioplasty (Touchard, A. G., et al., Thromb. Res. (2007) 120:477-484). One coronary artery was injured by balloon overstretch in each pig and the site of injury including some overlap with the non-injured vessel was covered with a single bare metal stent (BMS).
Accumulation of ^111In-labeled autologous platelets on the stents over the first 24 h was measured in 4/6 pigs in each group. Radiolabeled platelets were injected 15 min before the coronary catheterization and the hearts perfusion-fixed after 24 h to obtain the stented vessel segment for counting radiolabeled platelets.

[5] = test system: ADP-induced platelet aggregation; assay: Ex vivo ADP-induced platelet aggregation in platelet-rich plasma in pigs (Example 5); design: species or system pig
[6] = test system: ADP-induced platelet aggregation; assay: Ex vivo ADP-induced platelet aggregation in platelet-rich plasma after dosing rabbits; design: species or system rabbit; settings: clopidogrel 10 mg/kg oral
Excerpt: Blood samples taken at various time points were heparinized.
Data are presented as relative light transmission versus time.

[7] = test system: rats, embolic stroke (thrombus injection into internal carotid artery); assay: Embolic stroke model in rats, apyrase agent with or without r-tPA (Example 1); format: in vivo, rat; settings: r-tPA 10 mg/kg alone; brains at 3 days
Description: The following groups were included in this study:
(1) control (saline treated), n=11;
(2) apyrase agent at 0.75 mg/kg, n=4;
(3) apyrase agent at 2.25 mg/kg, n=4;
(4) r-tPA (at 10 mg/kg), n=4;
(5) apyrase agent at 0.75 mg/kg plus r-tPA (10 mg/kg) and
(6) apyrase agent at 2.25 mg/kg plus r-tPA (10 mg/kg) (n=10).
All the treatments were initiated at 2 h following thrombus injection into internal carotid artery. Infarct volume and behavioral deficit were determined at day 3 after the stroke.

[8] = aspirin 5 mg/kg, clopidogrel 4 mg/kg
[9] = by the end of adjunctive therapy

CC(=O)Oc1ccccc1C(=O)O [aspirin]
Neurological deficits, median (interquartile range 25th to 75th), modified Bederson score ([1]; 4 h after MCA occlusion): 3
Neurological deficits, median (interquartile range 25th to 75th), modified Bederson score ([1]; 4 h after MCA occlusion, listed as Aspirin (ASA)): 3 (2-4)
Neurological deficits, median (interquartile range 25th to 75th), modified Bederson score ([1]; 8 h after MCA occlusion): 2.5 (2-3)
infarct volume, percentage of the total volume of the ipsilateral hemisphere (mean±SD) ([1]; 24 h after MCA occlusion, aspirin 1.25 mg/kg gastrically once a day from 3 days prior, apyrase 0.75 mg/kg IV at 2 h): 20.69±2.85%
Neurological deficits, median (interquartile range 25th to 75th), modified Bederson score ([1]; 24 h after MCA occlusion): significantly less severe than the control group
Neurological deficits, median (interquartile range 25th to 75th), modified Bederson score ([1]; 24 h after MCA occlusion, listed as Aspirin (ASA)): 1.5 (1-2)*
extracellular hemoglobin content in brain homogenates (hemorrhagic transformation, Drabkin's reagents) ([1]; 24 h after ischemic injury): 0.93±0.11
brain edema (brain swelling) ([1]; 24 h after ischemic injury, aspirin 1.25 mg/kg, apyrase 0.75 mg/kg IV at 2 h): 6.81±0.56%
Re-occlusion rate [2, 8]: 100%
Re-occlusion time [2, 8]: 81′
Reperfusion Time ([2]; aspirin 5 mg/kg, clopidogrel 4 mg/kg, after r-tPA): 23′
ALT [3]: 48 u/L and 25 u/L and 52 u/L and 50 u/L and 106 u/L
AST [3]: 45 u/L and 24 u/L and 38 u/L and 29 u/L and 211 u/L
AlkPh [3]: 95 u/L and 68 u/L and 132 u/L and 117 u/L and 235 u/L
BUN [3]: 12 mg/dL and 10 mg/dL and 4 mg/dL and 7 mg/dL and 11 mg/dL
Creat [3]: 1.1 mg/dL (4×) and 0.9 mg/dL
Glu [3]: 30 mg/dL and 38 mg/dL and 49 mg/dL and 20 mg/dL and 58 mg/dL
HGB [3]: 9.3 g/dL and 8.1 g/dL (3×) and 7.2 g/dL
K [3]: 3.5 mmol/L and 3.3 mmol/L and 3.6 mmol/L and 3.2 mmol/L and 2.7 mmol/L
Na [3]: 135 mmol/L and 140 mmol/L and 138 mmol/L and 144 mmol/L and 117 mmol/L
PCV [3]: 26.8% and 27.7% and 23.9% and 22.8% and 20.7%
Platelets [3]: 301 thns/uL and 498 thns/uL and 355 thns/uL and 499 thns/uL and 213 thns/uL
RBC [3]: 5.19 mil/uL and 4.75 mil/uL and 4.9 mil/uL and 5.07 mil/uL and 4.52 mil/uL
Tot. Prot [3]: 6 g/dL and 4.5 g/dL and 4 g/dL and 5 g/dL and 4.2 g/dL
WBC [3]: 10.3 thns/uL and 16.4 thns/uL and 13.2 thns/uL and 13.9 thns/uL and 13.3 thns/uL
average luminal stenosis ([4]; 30 days after stenting, six measurements in two pigs): 29.6±6%
accumulation of radiolabeled platelets on stented coronaries ([4]; after 24 h, apyrase […] or clopidogrel 8 mg/kg, each with aspirin 10 mg/kg and heparin): 5.5×10^5 platelets/mm^2

COC(=O)[C@H](c1ccccc1Cl)N1CCc2sccc2C1 [clopidogrel]
buccal mucosa bleeding time [2]: significantly prolonged
PT [2, 9]: increased
aPTT [2, 9]: increased
blood loss from a standardized incision of the abdominal wall ([3]; 2 and 24 h, blood collected over 5 min): trend for an increase in blood loss by 24 h
template bleeding times relative to apyrase agent or control pigs ([3]; 2 and 24 h, scalpel cut at the edge of the ear): ~3 fold
PT compared to baseline ([3]; 3, 8 and 24 h after gavage): increased significantly compared to baseline
aPTT ([3]; during the time of heparinization): the increase was significant only in clopidogrel-treated pigs
ALT [3]: 47 u/L and 65 u/L and 45 u/L (2×) and 43 u/L and 77 u/L
AST [3]: 61 u/L and 63 u/L and 57 u/L and 31 u/L and 44 u/L and 64 u/L
AlkPh [3]: 131 u/L and 111 u/L and 225 u/L and 180 u/L (2×) and 184 u/L
BUN [3]: 13 mg/dL and 12 mg/dL and 8 mg/dL and 7 mg/dL and 11 mg/dL and 5 mg/dL
Creat [3]: 0.9 mg/dL (4×) and 1 mg/dL (2×)
Glu [3]: 20 mg/dL and 33 mg/dL and 69 mg/dL and 40 mg/dL (2×) and 30 mg/dL
HGB [3]: 7.6 g/dL and 7.8 g/dL and 6.7 g/dL and 9.2 g/dL and 9 g/dL and 8.5 g/dL
K [3]: 4.3 mmol/L and 4.2 mmol/L (2×) and 3.5 mmol/L and 4.4 mmol/L (2×)
Na [3]: 131 mmol/L and 132 mmol/L and 119 mmol/L and 140 mmol/L and 134 mmol/L and 138 mmol/L
PCV [3]: 21.4% and 22.9% and 20.8% and 28% and 25% and 25.8%
Platelets [3]: 248 thns/uL and 347 thns/uL and 345 thns/uL and 294 thns/uL and 298 thns/uL and 225 thns/uL
RBC [3]: 4.3 mil/uL and 4.7 mil/uL (2×) and 4.6 mil/uL and 5.8 mil/uL and 5.5 mil/uL
Tot. Prot [3]: 4.8 g/dL and 5.2 g/dL and 4.2 g/dL and 4.5 g/dL and 4.7 g/dL and 4.6 g/dL
WBC [3]: 10.8 thns/uL and 16.1 thns/uL and 11.3 thns/uL and 16.9 thns/uL (2×) and 12 thns/uL
template bleeding time ([3]; summary of findings): markedly increased
platelet aggregation by 24 h ([5]; 24 h after dosing): persistent inhibition of aggregation
time after dosing at which significant inhibition of ADP-induced platelet aggregation began ([5]; clopidogrel 8 mg/kg gavage plus aspirin and heparin): 5 h
time after treatment at which significant effect on platelet aggregation was observed [6]: 5 h

heparin
Activated Clotting Time relative to baseline ([3]; after heparin 150 U/kg): > 9 fold
Activated Clotting Time (ACT) ([3]; after heparin 150 U/kg (baseline 119±15 sec, n=17)): 1114 ± 286 s

r-tPA: recombinant tissue plasminogen activator
Hemorrhage #/total animals [7]: 5 out of 11 and 5/11
